Test results reported in patent publication EP0941988A2, “Benzamidoxime derivatives, intermediates and process for their preparation and their use as fungicides” (BASF AKTIENGESELLSCHAFT, priority 1998, dated 1999).

What was measured:
[1] = test system: Weizenmehltau (Erysiphe graminis f.sp.tritici); assay: Efficacy against wheat powdery mildew, protective spray on wheat seedlings cv. "Frühgold" (Beispiel 2); format: in vivo; details: inoculated 24 h after spray coating dried, visual rating after 7 days, concentration not given, untreated plants 80 % infested
Experimental: Beispiel 2: Wirksamkeit gegen Weizenmehltau
Blätter von in Töpfen gewachsenen Weizenkeimlingen der Sorte "Frühgold" wurden mit wäßriger Wirkstoffaufbereitung, die aus einer Stammlösung bestehend aus 10 % Wirkstoff, 63% Cyclohexanon und 27 % Emulgiermittel angesetzt wurde, bis zur Tropfnässe besprüht und 24 h nach dem Antrocknen des Spritzbelages mit Sporen des Weizenmehltaus (Erysiphe graminis f.sp.tritici) bestäubt. Die Versuchspflanzen wurden anschließend im Gewächshaus bei Temperaturen zwischen 20 und 22 °C und 75 bis 80 % relativer Luftfeuchtigkeit aufgestellt. Nach 7 Tagen wurde das Ausmaß der Mehltauentwicklung visuell in % der gesamten Blattfläche ermittelt.

[2] = test system: Weizenmehltau (Erysiphe graminis forma specialis tritici); assay: Efficacy against wheat powdery mildew, protective spray on wheat seedlings cv. "Kanzler" (Anwendungsbeispiel 1); format: in vivo; details: inoculated 24 h after spraying, rating after 7 days, untreated 80 %
From the text: Anwendungsbeispiel 1 - Wirksamkeit gegen Weizenmehltau
Blätter von in Töpfen gewachsenen Weizenkeimlingen der Sorte ? Kanzler" wurden mit wäßriger Wirkstoffaufbereitung, die aus einer Stammlösung bestehend aus 10 % Wirkstoff, 63 % Cyclohexanon und 27 % Emulgiermittel angesetzt wurde, bis zur Tropfnässe besprüht und 24 Stunden nach dem Antrocknen des Spritzbelages mit Sporen des Weizenmehltaus (Erysiphe graminis forma specialis tritici) bestäubt. Die Versuchspflanzen wurden anschließend im Gewächshaus bei Temperaturen zwischen 20 und 24°C und 60 bis 90 % relativer Luftfeuchtigkeit aufgestellt. Nach 7 Tagen wurde das Ausmaß der Mehltauentwicklung visuell in % Befall der gesamten Blattfläche ermittelt.

## O=C(Cc1ccccc1)NC(=NOCC1CC1)c1c(Cl)ccc(F)c1Cl [II.1, N-Phenylacetyl-2,6-dichlor-5-fluorbenzamid-[O-cyclopropylmethyl]oxim]
[1]
  Ausmaß der Mehltauentwicklung (Befall): keinen Befall
[2]; 16 ppm
  %-Befall der Blätter nach Applikation von ... ppm-haltiger wäßriger Wirkstoffaufbereitung: 0%
[2]; 63 ppm
  %-Befall der Blätter nach Applikation von ... ppm-haltiger wäßriger Wirkstoffaufbereitung: 0%
